Key:
[1] = In vitro binding affinity against Metabotropic glutamate receptor using [3H](S)-glutamic acid; design: species or system Mus musculus
Mus musculus [2] = assay: In vivo convulsant activity were tested in mice after subcutaneous administration.; format: functional; conditions: sc
Rattus norvegicus = species on record: Rattus norvegicus; assay: Compound was tested for electrophysiological experiments using rat cortical wedge preparation; format: functional
[3] = biological target: Glutamate receptor ionotropic, AMPA (Mus musculus, UniProt P23818+P23819+Q9Z2W8+Q9Z2W9)
Description: Compound was tested for in vitro binding affinity against Ionotropic glutamate receptor AMPA using [3H]AMPA ligand

Mus musculus [4] = assay: In vivo convulsant activity were tested in mice after intravenous administration.

| Structure (SMILES) | IC50 [1] [µM] | ED50 (Mus musculus [2]) [µmol/kg] | EC50 (Rattus norvegicus) [µM] | IC50 [3] [µM] | ED50 (Mus musculus [4]) [µmol/kg] |
| --- | --- | --- | --- | --- | --- |
| CCCCc1c(O)noc1CC(N)C(=O)O (stereo unspecified) | 0.63 | 110 | 37 | 1.8 | 94 |
| CCCCc1c(O)noc1C[C@@H](N)C(=O)O | 0.57 | – | > 1000 | > 1000 | > 350 |
| CCCCc1c(O)noc1C[C@H](N)C(=O)O | 0.64 | – | 17 | 0.48 | 44 |
| N[C@@H](Cc1onc(O)c1Br)C(=O)O | 0.22 | – | 21 | 0.34 | – |
| N[C@H](Cc1onc(O)c1Br)C(=O)O | 0.15 | – | > 1000 | 32 | – |
| NC(Cc1onc(O)c1Br)C(=O)O (stereo unspecified) | 0.2 | – | 23 | 0.6 | – |
| Cc1onc(O)c1CC(N)C(=O)O [(R,S)-AMPA] | > 100 | – | – | – | 55 |
| N[C@@H](Cn1oc(=O)[nH]c1=O)C(=O)O [QUISQUALATE] | 0.025 | – | 7.3 | – | – |

Source: ChEMBL document CHEMBL1131496, “Excitatory amino acid receptor ligands: resolution, absolute stereochemistry, and enantiopharmacology of 2-amino-3-(4-butyl-3-hydroxyisoxazol-5-yl)propionic acid” (J Med Chem, 1998)
